# Assay results: US7736646B2, “Methods for modulating angiogenesis with apelin compositions” (Arizona Board of Regents on behalf of the University of …, priority 2003, dated 2010)
# What was measured:
# [1] = system: primary rat cardiomyocyte cells; assay: Cobalt chloride hypoxia-mimic treatment, transcript levels by PCR; assay type: cell-based; settings: 150 μM, 4 hours, versus untreated cells
# Procedure: Because HIF-1α consensus sites are present in the apelin regulatory region, experiments were conducted to determine whether apelin expression is hypoxia responsive and regulated by HIF-1α. Upregulation of apelin expression under hypoxic conditions would be consistent with a role for apelin in promotion of tumor angiogenesis. Preliminary experiments were carried out using primary rat cardiomyocyte cells in culture and treatment with cobalt chloride. This procedure is accepted as an equivalent to culturing cells under hypoxic conditions because HIF-1α is a metal responsive transcription protein (Ladoux and Frelin, 1994; Piret et al., 2002; Maxwell and Salnikow, 2004). Fetal rat cardiac myocytes were plated and cultured in DMEM (Invitrogen, Carlsbad, Calif.) supplemented with 10% fetal calf serum and penicillin/streptomyocin at 37° C. After four days of culture, medium was removed, and cells were treated with fresh media containing 150 μM Cobalt Chloride (Piret et al., 2002). […] After 4 hours of culture, cells were harvested, and total RNA was extracted using the Trizol procedure according to the manufacturers recommendations (Invitrogen, Carlsbad, Calif.).
# Following PCR, amplification products were fractionated on an agarose gel and visualized using ethidium bromide staining under ultraviolet light (FIG. 12).
# [2] = system: BAE/APJ#2 cells; assay: Endothelial cell proliferation assay (BrdU incorporation); assay type: cell-based, bovine
# Procedure: SU1498 was included in proliferation cultures at a concentration of 10 ng/ml and results were assayed using BrdU incorporation. After growth factor incubation, BrdU was added to each well at a final concentration of 10 μM for 2 hours, cells were washed, and fixed for BrdU immunocytochemistry.
# Cells were fixed in 100% ice cold methanol at 4° C. for 2 hours to overnight. Prior to staining, cells were air dried and rehydrated for 3 minutes with PBS buffer. DNA was denatured at 37° C. with 2 M HCl, and neutralized with 2 washes for 5 minutes in 0.1 M borate buffer (pH 8.5). […] FITC-labeled anti-BrdU antibody (5 μg/ml) in block was added for 1 hour at room temperature. Cells were counterstained with propidium iodide following several washes in PBS buffer. For each experiment, 4 random fields were photographed for determination of percentage BrdU labeling.
# [3] = system: BAE/APJ#2 cells; settings: 10 ng/ml in bottom chamber, 16 hours
# Procedure: Bovine aortic endothelial cells (BAE) were cultured in DMEM supplemented with 10% fetal bovine serum (FBS) and penicillin/streptomycin. For generation of stable cell lines expressing APJ, the mouse APJ coding region was cloned into the pcDNA 3.1 vector downstream of the CMV promoter, in frame with a myc epitope at the C-terminal end of the protein, and upstream of the neomycin gene. […] Colonies were isolated and screened using RT-PCR for expression of mouse APJ and also by immunocytochemistry for expression of the myc epitope.
# Cell migration assays were performed using Transwell cell culture migration chambers (Becton Dickinson) with 8 micron pore size. BAE/APJ#2 cells were plated in serum free conditions in 100 μl at a concentration of 1×10^5 ml in the upper chamber of the migration chamber. Following cell attachment to the membrane, 10 ng/ml of growth factor was added to the bottom chamber, in a total volume of 0.5 ml. Cells were stimulated with growth factor in DMEM for 16 hours, or DMEM alone, at which time the cells remaining in the upper chamber were removed using a cotton tip applicator. Following a brief wash with PBS the remaining cells were fixed in 3.7% formaldehyde at 4° C. for 1 hour. Cells attached to the membrane in the lower chamber were stained with DAPI, and 3 random fields were counted for each experimental condition.
# [4] = system: chicken chorioallantoic membrane (CAM); settings: 50 ng on filter disc, three days, compared to control PBS
# Procedure: Chicken eggs were incubated at 37° C. in a humidified chamber. On day 10 of development, a small window was made in the outer shell of the egg, and the CAM was released from its attachment to the inner shell membrane. A larger window was then made in the egg to allow for addition of the filter paper containing growth factor. Filter discs (3MM Whatman) of 7-8 mm diameter were pretreated with 10 μl of 0.1% cortisone acetate (Sigma) solution to avoid inflammation of the CAM. The filter discs were air dried prior to application of growth factors. […] After air-drying, the filter discs were placed on the CAM, and eggs were returned to the incubator for three days. Filter discs and the attached CAM were then excised, washed with PBS, trimmed to the size of the disc, and photographed for quantitative analysis (FIGS. 7A and 7B). The number of vessel branch points was determined using a blind protocol. The results are shown as the mean of three independent experiments +/−s.e.m. (FIG. 7C).
compound,measurement,setting,value
[Cl][Co][Cl] [Cobalt Chloride],"apelin expression (transcript level, PCR)",[1],significantly increased
"CC(C)c1cc(/C=C(\C#N)C(=O)NCCCc2ccccc2)cc(C(C)C)c1O [SU1498, reference compound]",effect on VEGF-mediated proliferation,"[2]; SU1498 10 ng/ml, VEGF 10 ng/ml",partially inhibits
same,effect on apelin-mediated proliferation,"[2]; SU1498 10 ng/ml, apelin 10 ng/ml",no significant effect
VEGF [reference compound],endothelial cell migration (cells per field),[3],increase in migration
apelin-13,blood vessel formation in the CAM,[4],increased
same,leakage of blood vessels in the CAM,[4],increased
same,endothelial cell proliferation (percentage BrdU labeling),"[2]; 10 ng/ml, 24 hours, serum starved cells",promotes endothelial cell proliferation to a similar extent as VEGF
same,endothelial cell proliferation in the presence of the VEGF inhibitor SU1498,[2]; apelin 10 ng/ml with SU1498 10 ng/ml,still able to promote proliferation
same,endothelial cell migration (cells per field),[3],promotes endothelial cell migration
